# Values joined by “and” are separate entries in the source; they are usually repeats but may differ in a detail not shown here. Equal values may be shown once.
# Experiments:
# [1] = system: MCF7 cells; assay: Annexin V-FITC/PI cell death quantification in MCF7; assay type: cell-based, human; settings: 38 600 nM, 42 50 nM, 45 400 nM; for Annexin V-FITC/PI 72 h LA (late apoptosis) / Annexin V-FITC/PI 72 h Necrosis / Annexin V-FITC/PI 72 h EA (early apoptosis) / Annexin V-FITC/PI 72 h Live / Annexin V-FITC/PI 6 Days LA (late apoptosis) / Annexin V-FITC/PI 6 Days Necrosis / Annexin V-FITC/PI 6 Days EA (early apoptosis) / Annexin V-FITC/PI 6 Days Live: CA-4 50 nM; for Annexin V-FITC/PI 6 Days LA (late apoptosis) / Annexin V-FITC/PI 6 Days Necrosis / Annexin V-FITC/PI 6 Days EA (early apoptosis) / Annexin V-FITC/PI 6 Days Live: MCF7, 6 days
# Experimental: To determine whether the cytotoxic/antiproliferative effect of the MDS was due to apoptosis induction, cells were treated with variable concentrations of the drug for 72 h or 6 days, stained with Annexin V-FITC (AnV) and propidium iodide (PI), and analyzed by flow cytometry. Double negative cells (AnV^−/PI^−) were classified as live cells (L), cells positive for AnV and negative for PI (AnV^+/PI^−) were considered in Early Apoptosis (EA), cells negative for AnV and positive for PI (AnV^−/PI^+) were considered necrotic (N), and double-positive cells (AnV^+/PI^+) as Late Apoptosis (LA). In all cases, the compounds were used at the same concentrations previously used in cell cycle studies (Table 5).
# MCF7, SKOV-3, and HeLa apoptotic cells were quantified using an Annexin V-FITC/PI apoptosis detection kit (Immunostep, Salamanca, Spain) according to the manufacturer’s guidelines. 1.5 mL/well of cells in the exponential growth phase at 2·10^4 cells/mL were seeded onto 12-well plates and left to attach overnight. After 24 h incubation, cells were treated with selected compounds. After 72 h (MCF7, SKOV-3, and HeLa) and 6 days (MCF7) post-treatment, attached and floating cells of treated and untreated wells were collected, centrifuged, resuspended in Annexin V binding buffer, and stained with Annexin V-FITC/PI. Cells were then incubated in darkness at room temperature for 15 min and a total of 30,000 cells were acquired and analyzed using the BD Accuri™ C6 Plus Flow Cytometer and Software (version 1.0.264.21, BD Biosciences, San José, CA, USA), respectively. Compounds were dissolved in DMSO and the final solvent concentration never exceeded 0.5% (v/v). Control wells included cells with 0.5% (v/v) DMSO.
# [2] = system: SKOV3 ovarian carcinoma cells; assay: Antiproliferative activity against SKOV3 (MTT); assay type: cell-based; settings: Homo sapiens, SK-OV-3, 72 h
# Experimental: The in vitro antiproliferative activity of compounds 38, 42, and 45 against a panel of five human ovarian carcinoma cell lines (SKOV3, IGROV-1, A2780, OVCAR-8, and OVCAR-3) was evaluated by a colorimetric method (Table 3) and compared with paclitaxel. […] For SKOV3, the potency reduction observed for paclitaxel together with a sustained or improved (42 with a 7 nM IC50 value) potency for MDS results in a more favorable profile of the MDS compared to paclitaxel.
# MCF7 (human breast carcinoma), SKOV-3 (human ovarian carcinoma), OVCAR-3 (human ovarian carcinoma), OVCAR-8 (human ovarian carcinoma), and HeLa (human cervical carcinoma) cell lines were cultured in Dulbecco’s Modified Eagle’s Medium (DMEM) (Gibco, Thermo Fischer Scientific) containing 10% (v/v) heat-inactivated fetal bovine serum (HIFBS) (Lonza-Cambrex, Karlskoga, Sweden), 2 mM L-glutamine (Lonza-Cambrex, Karlskoga, Sweden), 100 μg/mL streptomycin, and 100 IU/mL penicillin (Lonza-Cambrex) at 37 °C in humidified 95% air and 5% CO2. HT-29 (human colon carcinoma), IGROV-1 (human ovarian carcinoma), and A2780 (human ovarian carcinoma) cell lines were cultured in RPMI 1640 medium (Gibco, Thermo Fischer Scientific) supplemented with 10% HIFBS, 100 μg/mL streptomycin, and 100 IU/mL penicillin at 37 °C in humidified 95% air and 5% CO2 atmosphere. The presence of mycoplasma was routinely checked with MycoAlert kit (Lonza-Cambrex) and only mycoplasma-free cells were used in the experiments. Ovarian tumor cell lines were originally acquired from Dr Atanasio Pandiella from Centro de Investigación del Cáncer (CIC), Salamanca, Spain. HeLa, HT-29 and MCF7 tumor cell lines were provided by Dr Faustino Mollinedo from Centro de Investigaciones Biológicas Margarita Salas, Madrid, Spain.
# MCF7, HeLa, and HT-29 cell proliferation, when treated with the corresponding compounds, were determined using the XTT (sodium 3’-[1(phenylaminocarbonyl)-3,4-tetrazolium]-bis(4-methoxy-6-nitro)-benzenesulfonic acid hydrate) cell proliferation kit (Roche Molecular Biochemicals, Mannheim, Germany). […] The absorbance of the formazan product generated was measured at 450 nm using a multi-well plate reader. SKOV-3, OVCAR-3, OVCAR-8, IGROV-1, A-2780 cell proliferation, when treated with the corresponding compound, were determined using MTT (3-(4,5-dimethylthiazol-2-yl)-2,5-diphenyl-2H-tetrazolium bromide) (Sigma-Aldrich, St. Louis, MO, USA). […] Absorbance was measured at 570 nm in a plate reader (Ultra Evolution, Tecan, Männedorf, Suiza). […] After 24 h incubation, to allow cells to attach to the plates, all compounds were added at 1 µM concentration and the effect on the proliferation was evaluated 72 h post-treatment. […]
Structure (SMILES),"Annexin V-FITC/PI 72 h LA (late apoptosis) ([1]; MCF7, 72 h) [%]","Annexin V-FITC/PI 72 h Necrosis ([1]; MCF7, 72 h) [%]","Annexin V-FITC/PI 72 h EA (early apoptosis) ([1]; MCF7, 72 h, listed as CA-4)","Annexin V-FITC/PI 72 h Live ([1]; MCF7, 72 h, listed as CA-4)",Annexin V-FITC/PI 6 Days LA (late apoptosis) [1] [%],Annexin V-FITC/PI 6 Days Necrosis [1] [%],Annexin V-FITC/PI 6 Days EA (early apoptosis) ([1]; listed as CA-4) [%],Annexin V-FITC/PI 6 Days Live ([1]; listed as CA-4) [%],"Annexin V-FITC/PI 72 h EA (early apoptosis) ([1]; MCF7, 72 h)","Annexin V-FITC/PI 72 h Live ([1]; MCF7, 72 h)",Annexin V-FITC/PI 6 Days EA (early apoptosis) [1],Annexin V-FITC/PI 6 Days Live [1],IC50 [2] [nM],"Phosphatidylserine exposure (Annexin V-positive MCF7 cells) ([1]; MCF7, 72 h) [%]"
"COc1ccc(/C=C\c2cc(OC)c(OC)c(OC)c2)cc1O [Combretastatin A-4, reference compound]",3.3,6.7,32% and 31.7%,58% and 58.3%,2.7,0.4,52.4,44.5,,,,,,
CNc1ccc(S(=O)(=O)N(C)c2cc(OC)c(OC)c(OC)c2)cc1 [Compound 38],5.4,5.1,,,2.7,0.3,,,29%,60% and 60.5%,45.0%,52.0%,46,
COc1ccc(S(=O)(=O)N(C)c2cc(OC)c(OC)c(OC)c2)cc1N [Compound 42],2.3,1.4,,,1.7,0.3,,,9% and 8.5%,88% and 87.7%,19% and 18.9%,79% and 79.1%,7,11
COc1ccc(S(=O)(=O)N(Cc2ccccc2)c2cc(OC)c(OC)c(OC)c2)cc1N [Compound 45],7.5,1.9,,,3.8,0.3,,,20% and 20.1%,71% and 70.5%,39.3%,56.7%,48,

# From article PMC7918738, “Microtubule Destabilizing Sulfonamides as an Alternative to Taxane-Based Chemotherapy” (International Journal of Molecular Sciences, 2021)
